Experimental findings from PubChem BioAssay (NCI) are described below.

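Where inhibition never reached the appropriate level, the endpoint shown equals the highest concentration tested. Otherwise, values were interpolated linearly from a five-concentration, 48-hour dose response in 96-well plates. GI50 is the concentration that inhibits growth by half. TGI is the concentration that stops growth completely.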

Test systems include HL-60(TB) leukemia; M14 melanoma; UO-31 renal; KM12 colon; NCI-H226 lung; SF-295 CNS; CCRF-CEM leukemia; SR leukemia; DU-145 prostate; T-47D breast.
Holding throughout (assay): inhibition of tumour cell growth, NCI panel, 48 h

With `CC[O-].CC[O-].O=C1C=C([O-])C(=O)c2ccccc21.O=C1C=C([O-])C(=O)c2ccccc21.[Ti+4]`, the GI50 in the assay with HL-60(TB) leukemia was 7.22 µM; with M14 melanoma it was 8.52 µM; in the assay on UO-31 renal it was above 86.1 µM; in the assay with KM12 colon it was above 90.8 µM; in the assay with NCI-H226 lung, above 82.8 µM; in the assay on CCRF-CEM leukemia, above 100 µM. The TGI in the assay with HL-60(TB) leukemia, with M14 melanoma, in the assay with UO-31 renal, with KM12 colon, with NCI-H226 lung and with SF-295 CNS was above 100 µM each time. Also, in the assay on CCRF-CEM leukemia, the TGI was above 100 µM.
Take `CCN(N=O)C1C2(CCCC2)NC(=O)C12CCCC2` (centres undefined): the TGI with HL-60(TB) leukemia, in the assay with M14 melanoma, with SR leukemia, in the assay with UO-31 renal, in the assay on KM12 colon and with NCI-H226 lung was above 100 µM each time. The TGI with SF-295 CNS and in the assay with CCRF-CEM leukemia was above 100 µM each time.
For `CCCCCc1cc(/C=C2/N=C(c3ccc[nH]3)C=C2OC)[nH]c1C`, the TGI in the assay on DU-145 prostate is 1.48 µM; in the assay with M14 melanoma, below 0.034 µM; in the assay with UO-31 renal, below 0.0193 µM; in the assay with KM12 colon, 0.364 µM; in the assay on NCI-H226 lung, 1.79 µM; in the assay with T-47D breast, 0.421 µM. Also, the values for the TGI with SF-295 CNS and with CCRF-CEM leukemia were below 0.0282 µM and 0.209 µM, respectively.
As to `OC1(C(Sc2ccccc2)Sc2ccccc2)CCCCCC1`, the TGI in the assay with HL-60(TB) leukemia was 50.8 µM; in the assay with M14 melanoma, 49.2 µM; in the assay with SR leukemia it was 67 µM; in the assay on UO-31 renal, 16.6 µM; with KM12 colon, above 100 µM; in the assay on SF-295 CNS it was 66.2 µM. Also, the TGI with CCRF-CEM leukemia worked out at 77.3 µM.
`Cc1ccc(NC(=S)NNC(=S)Nc2ccc(C)cc2)cc1`: the GI50 in the assay with DU-145 prostate is 6.89 µM; in the assay on M14 melanoma it was 3.54 µM; in the assay with UO-31 renal, 11.6 µM; in the assay with KM12 colon, 3.63 µM; in the assay on NCI-H226 lung it was above 100 µM; with T-47D breast, 14.4 µM. The GI50 in the assay with SF-295 CNS was 3.16 µM. In addition, the TGI in the assay with DU-145 prostate is 59.2 µM; with M14 melanoma, above 100 µM; in the assay with UO-31 renal, above 100 µM; with KM12 colon it was above 100 µM; with NCI-H226 lung, above 100 µM; with T-47D breast, above 100 µM. In addition, in the assay with SF-295 CNS, the TGI was above 100 µM.
Consider `C[n+]1cccc(NC(=O)c2ccc3ccc4ccc(C(=O)Nc5ccc[n+](C)c5)nc4c3n2)c1`, for which the GI50 with HL-60(TB) leukemia is 3.54 µM; in the assay on DU-145 prostate it was 0.376 µM; in the assay on M14 melanoma it was 3.67 µM; in the assay with UO-31 renal, above 20.2 µM; in the assay on KM12 colon, 3.08 µM; with NCI-H226 lung, 0.121 µM. Besides, the results for the GI50 in the assay on T-47D breast, in the assay with SF-295 CNS and in the assay on CCRF-CEM leukemia were 0.52 µM, 2.59 µM and 5.56 µM, respectively. The TGI in the assay on HL-60(TB) leukemia was above 100 µM; in the assay on DU-145 prostate, 15.6 µM; with M14 melanoma, above 100 µM; in the assay with UO-31 renal it was above 100 µM; with KM12 colon, above 100 µM; with NCI-H226 lung it was 0.693 µM. Further, the TGI was above 100 µM with T-47D breast, 25.3 µM in the assay on SF-295 CNS and above 100 µM in the assay with CCRF-CEM leukemia.
As for `CC(=O)OC(C(=O)[O][Ge]([CH3])([CH3])[CH3])c1ccccc1` (centres undefined), the TGI in the assay on HL-60(TB) leukemia, in the assay on M14 melanoma, in the assay with UO-31 renal, with KM12 colon, with NCI-H226 lung and in the assay on SF-295 CNS was above 100 µM in each case. The GI50 with M14 melanoma, in the assay on UO-31 renal, in the assay on KM12 colon, in the assay with NCI-H226 lung and with SF-295 CNS was above 100 µM in each case.
Turning to `CO/N=C(/C)COc1ccc2c(c1)oc(=O)c1cc(OC)ccc12`, the GI50 was above 100 µM in the assay on DU-145 prostate; above 100 µM with M14 melanoma; 73.8 µM with UO-31 renal; above 100 µM in the assay on KM12 colon; above 100 µM with NCI-H226 lung; above 100 µM in the assay with T-47D breast. In addition, the GI50 in the assay on SF-295 CNS is 82.4 µM; in the assay on CCRF-CEM leukemia it was above 100 µM. Moreover, the TGI in the assay with DU-145 prostate, with M14 melanoma, with UO-31 renal, with KM12 colon, with NCI-H226 lung and in the assay on T-47D breast was above 100 µM in each case. Moreover, the TGI with SF-295 CNS and in the assay on CCRF-CEM leukemia was above 100 µM throughout.
`COc1cc(/C=C2\CC3C4CCC5=CC(=O)CC[C@]5(C)C4CC[C@]3(C)C2=O)ccc1OCCN1CCCC1` (some centres undefined): the GI50 with DU-145 prostate is 3.76 µM; in the assay on M14 melanoma, 1.67 µM; with UO-31 renal, 1.68 µM; in the assay on KM12 colon, 1.92 µM; with NCI-H226 lung, 1.81 µM; with T-47D breast, 3.29 µM. The GI50 in the assay on SF-295 CNS was 2.62 µM; in the assay on CCRF-CEM leukemia, 1.12 µM. The TGI in the assay on DU-145 prostate amounted to 16.8 µM; with M14 melanoma, 3.39 µM; in the assay with UO-31 renal, 3.38 µM; in the assay with KM12 colon, 4.77 µM; with NCI-H226 lung, 7.08 µM; in the assay on T-47D breast it was 9.21 µM. In addition, the TGI with SF-295 CNS was determined as 7.58 µM; with CCRF-CEM leukemia, 4.35 µM.
As to `CC(C)n1cc(-c2ccc3c(c2)N(C)CC3)c2c(NS(=O)(=O)c3ccn(C)n3)ccnc21`, the GI50 in the assay with HL-60(TB) leukemia is 59.2 µM; with DU-145 prostate it was above 100 µM; with M14 melanoma, 44.5 µM; with UO-31 renal, 31.7 µM; with KM12 colon, 47.9 µM; with NCI-H226 lung it was 39.4 µM. Moreover, the GI50 in the assay with T-47D breast was 29.7 µM; with SF-295 CNS, 27.4 µM; in the assay on CCRF-CEM leukemia it was above 100 µM. Also, the TGI in the assay on HL-60(TB) leukemia, in the assay with DU-145 prostate, with M14 melanoma, with UO-31 renal, in the assay with KM12 colon and in the assay with NCI-H226 lung was above 100 µM in each case. The TGI in the assay with T-47D breast, in the assay with SF-295 CNS and with CCRF-CEM leukemia was above 100 µM each time.
